Measured values reported in patent US20260335451A1, “SOLID ORAL DOSAGE FORMS OF ESTROGEN RECEPTOR DEGRADERS” (Arvinas Operations, Inc., priority 2023, published 2026).

What was measured:
[1] = Biopharmaceutics Classification System class; format: physicochemical
[2] = Preclinical exposure of epimer Compound B vs Compound A; format: in vivo; details: preclinical data; epimer formed by interconversion of Compound A
ER = target: T1, ER (Homo sapiens, UniProt P03372); assay: ER degradation; details: evidence in words
T1 construct: PROTAC recruits cereblon (CRBN) E3 ligase
T1 sequence (P03372 1-595): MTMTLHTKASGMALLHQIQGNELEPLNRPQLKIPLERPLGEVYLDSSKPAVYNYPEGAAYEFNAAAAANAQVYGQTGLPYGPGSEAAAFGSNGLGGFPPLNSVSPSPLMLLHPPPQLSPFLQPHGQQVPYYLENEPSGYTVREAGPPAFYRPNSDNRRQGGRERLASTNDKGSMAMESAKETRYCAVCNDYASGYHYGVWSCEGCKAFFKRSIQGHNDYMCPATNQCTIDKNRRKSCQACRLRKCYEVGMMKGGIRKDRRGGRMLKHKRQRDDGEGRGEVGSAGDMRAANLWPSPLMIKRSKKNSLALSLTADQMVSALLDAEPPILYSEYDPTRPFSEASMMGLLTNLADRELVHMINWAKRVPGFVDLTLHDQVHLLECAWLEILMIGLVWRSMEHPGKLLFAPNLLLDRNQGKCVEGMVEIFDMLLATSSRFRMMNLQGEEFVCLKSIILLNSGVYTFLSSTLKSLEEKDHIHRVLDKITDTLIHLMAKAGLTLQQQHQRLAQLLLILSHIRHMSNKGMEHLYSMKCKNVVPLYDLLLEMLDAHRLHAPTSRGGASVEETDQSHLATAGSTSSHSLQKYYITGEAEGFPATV

Row | permeability (in words, BCS) [1] | solubility (in words, BCS) [1] | exposure of Compound B compared to Compound A [2] [%] | ER degradation (ER) | Structure (SMILES)
1 | low permeability | low solubility |  |  | O=C1CC[C@H](N2Cc3cc(N4CCN(CC5CCN(c6ccc([C@@H]7c8ccc(O)cc8CC[C@@H]7c7ccccc7)cc6)CC5)CC4)ccc3C2=O)C(=O)N1 [Compound A, (S)-3-(5-(4-((1-(4-((1R,2S)-6-hydroxy-2-phenyl-1,2,3,4-tetrahydronaphthalen-1-yl)phenyl)piperidin-4-yl)methyl)piperazin-1-yl)-1-oxoisoindolin-2-yl)piperidine-2,6-dione]
2 |  |  | < 26 | does not degrade the ER | O=C1CC[C@@H](N2Cc3cc(N4CCN(CC5CCN(c6ccc([C@@H]7c8ccc(O)cc8CC[C@@H]7c7ccccc7)cc6)CC5)CC4)ccc3C2=O)C(=O)N1 [Compound B]
